Assay [1] concerns the target T1, BTK (Homo sapiens (Human), UniProt Q06187). The assay can be described thus: Btk kinase assay (HTRF). The class given is biochemical. The conditions noted are these: [ATP]=80 μM, BTK=3.4 nM; read-out: BTK Inhibition. The method, boiled down:
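HTRF read-out with enzyme, inhibitor, ATP and 1 μM peptide substrate in 50 mM Hepes pH 7.0, 0.02% NaN3, 0.01% BSA, 0.1 mM orthovanadate. Activity measured across compound concentrations against no-inhibitor controls, with no-enzyme wells as baseline.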
Target sequence in this assay (Q06187 whole entry, species assumed): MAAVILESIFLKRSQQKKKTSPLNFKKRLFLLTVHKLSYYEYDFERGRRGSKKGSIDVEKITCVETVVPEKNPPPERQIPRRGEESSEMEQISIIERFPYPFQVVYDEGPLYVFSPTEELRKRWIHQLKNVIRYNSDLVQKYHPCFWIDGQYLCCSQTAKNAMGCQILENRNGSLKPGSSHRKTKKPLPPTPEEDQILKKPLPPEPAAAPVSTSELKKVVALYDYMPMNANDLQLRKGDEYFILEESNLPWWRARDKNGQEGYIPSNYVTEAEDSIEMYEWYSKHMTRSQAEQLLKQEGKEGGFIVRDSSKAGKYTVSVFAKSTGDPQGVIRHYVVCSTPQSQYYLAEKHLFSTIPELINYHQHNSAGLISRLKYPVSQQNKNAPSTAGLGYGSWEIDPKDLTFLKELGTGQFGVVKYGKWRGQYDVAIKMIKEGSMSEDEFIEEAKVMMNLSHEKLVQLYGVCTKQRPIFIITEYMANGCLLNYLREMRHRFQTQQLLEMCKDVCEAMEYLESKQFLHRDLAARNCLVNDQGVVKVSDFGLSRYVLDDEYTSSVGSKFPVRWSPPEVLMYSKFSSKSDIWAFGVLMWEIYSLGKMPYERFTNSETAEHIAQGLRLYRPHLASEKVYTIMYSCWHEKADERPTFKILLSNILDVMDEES

In assay [2] the target is T1, BTK. In words: Btk occupancy in cellular assays (PCI-33380 labeling, Jeko-1 cells). The conditions noted are these: 1.5 h pre-incubation with compound, PCI-33380 5 μM 1 h. The class given is cell-based. As to the method:
Btk Occupancy in Cellular Assays
For PCI-33380 labeling of human B cells, 10^6 Jeko-1 cells were pre-incubated with compound for 1.5 h before labeling. Then cells were treated with PCI-33380 at 5 μM for 1 h. Washed, lysed in Ripa buffer containing sample reducing agent, and analyzed by SDS/PAGE and fluorescent gel scanning using a Typhoon scanner 9500 (GE Healthcare) (Ex, 532 nm; Em, 555 nm). The gel was then blotted and total Btk levels detected by standard Western blot with Btk antibody (CST).
Target sequence in this assay (Q06187 whole entry): as the sequence (Q06187 whole entry, species assumed) above

The target of assay [3] is Btk (Mus musculus (Mouse), UniProt P35991). In words: Btk occupancy in vivo (PBMCs or splenocytes, PCI-33380 labeling). Conditions: after 4 hours, Babc/L mice. The procedure:
For analysis of Btk occupancy in Babc/L mice following oral dosing of compounds after 4 hours. Isolating peripheral blood mononuclear cells (PBMCs) with mouse peripheral blood separation kit (Hao Yang Biological Manufacture CO., LTD, Tianjin) were collected from Babc/L mice (1 ml blood from two mice). Spleens were processed to splenocytes followed by 5 min incubation in red blood cell lysing buffer (from mouse peripheral blood separation kit). PBMCs or splenocytes were then PCI-33380-labeled and lysates analyzed by fluorescent gel scanning as described in cellular assays.

In the next assay the test system is Ramos cells. The assay can be described thus: Calcium flux assay, anti-IgM stimulated Ramos cells. The class given is cell-based. Conditions: Ramos cells stimulated with goat anti-human IgM antibody 10 μg/ml; read-out: Ramos Ca Flux. The procedure:
Calcium FluxAssay Calcium flux fluorescence-based assays were performed in […] (Hamamatsu Photonics) fluorometric imaging plate reader according to manufacturer instructions. […] Then 12.5 […] 2× dye loading solution (Fluo-4 NW Calcium Assay Kits, Invitrogen) was added per well of a 384-well plate. Afterwards, actively growing Ramos cells (ATCC) in RPM1640 medium supplemented with 10% FBS (Invitrogen) were washed and re-plated in assay buffer (from Fluo-4 NW Calcium Assay Kits, Invitrogen) to approximately 6.4×10^6/ml (80000 cells/12.5 μL in 384-well plates). The plates were incubated at 37° C. for 30 minutes, then at room temperature for an additional 30 minutes. The plates were now ready to be used in an experiment. Immediately after the transfer and a 10-s recording of baseline fluorescence, the compound treated cells were stimulated with a goat anti-human IgM antibody (10 μg/ml; Jackson Immuno Research) and read in a FDSS for 240 seconds. Difference between the signal and that at baseline, designated adjusted relative fluorescence unit, was calculated by using a custom Excel (Microsoft, Redmond, Wash.) template to determine IgM-induced calcium influx and its inhibition by compounds. The table belows show the result.

Chain of Btk (P35991 whole entry): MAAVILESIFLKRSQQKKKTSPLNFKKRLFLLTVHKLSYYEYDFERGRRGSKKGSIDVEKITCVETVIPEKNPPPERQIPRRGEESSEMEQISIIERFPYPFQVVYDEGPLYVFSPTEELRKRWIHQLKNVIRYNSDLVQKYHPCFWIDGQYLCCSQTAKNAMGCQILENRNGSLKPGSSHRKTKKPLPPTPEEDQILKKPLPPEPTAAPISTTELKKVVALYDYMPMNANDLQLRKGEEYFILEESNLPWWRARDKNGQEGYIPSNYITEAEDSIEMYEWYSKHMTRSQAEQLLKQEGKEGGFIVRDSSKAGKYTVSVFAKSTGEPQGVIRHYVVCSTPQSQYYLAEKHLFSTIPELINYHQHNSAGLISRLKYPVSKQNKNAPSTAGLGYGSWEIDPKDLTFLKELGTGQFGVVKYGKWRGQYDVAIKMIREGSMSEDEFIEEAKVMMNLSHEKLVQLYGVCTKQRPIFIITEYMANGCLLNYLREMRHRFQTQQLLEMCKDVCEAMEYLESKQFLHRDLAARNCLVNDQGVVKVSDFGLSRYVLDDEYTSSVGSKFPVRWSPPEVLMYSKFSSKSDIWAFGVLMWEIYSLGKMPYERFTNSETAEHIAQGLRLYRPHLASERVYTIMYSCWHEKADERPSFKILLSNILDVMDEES

As for `C=CC(=O)N1CCC[C@@H](n2nc(-c3ccc(Oc4cccc(OC)c4F)cc3)c3cncc(OCC)c32)C1` [Compound 73, (R)-1-(3-(7-ethoxy-3-(4-(2-fluoro-3-methoxyphenoxy)phenyl)-1H-pyrazolo[4,3-c]pyridin-1-yl)piperidin-1-yl)prop-2-en-1-one], the IC50 at BTK [1] was less than 10 nM. The “concentration sufficient to fully occupy the active site of Btk” value (shortened to “concentration sufficient”) on BTK [2] worked out at 100 nM. Further, the “Btk occupancy in vivo” value on Btk [3] (5 mg/kg single oral dose) is “full occupancy”.

On to `C=CC(=O)N1CCC[C@@H](n2nc(-c3ccc(Oc4cccc(F)c4)cc3)c3cnccc32)C1` [Compound 62, (R)-1-(3-(3-(4-(3-fluorophenoxy)phenyl)-1H-pyrazolo[4,3-c]pyridin-1-yl)piperidin-1-yl)prop-2-en-1-one], for which the IC50 at BTK [1] is less than 10 nM; in the assay on Ramos cells, 100 to 1000 nM.

As for `C=CC(=O)N1CC[C@@H](n2nc(-c3ccc(Oc4cccc(OC)c4)cc3)c3cnccc32)C1` [Compound 64, (R)-1-(3-(3-(4-(3-methoxyphenoxy)phenyl)-1H-pyrazolo[4,3-c]pyridin-1-yl)pyrrolidin-1-yl)prop-2-en-1-one], the IC50 on BTK [1] is less than 10 nM; with Ramos cells, 10 to 100 nM.

In the case of `C=CC(=O)N1CC[C@@H](n2nc(-c3ccc(Oc4ccccc4)c(Cl)c3)c3cnccc32)C1` [Compound 11, (R)-1-(3-(3-(3-chloro-4-phenoxyphenyl)-1H-pyrazolo[4,3-c]pyridin-1-yl)pyrrolidin-1-yl)prop-2-en-1-one], the IC50 is less than 10 nM at BTK [1] and 100 to 1000 nM with Ramos cells.

`C=CC(=O)N1CCC[C@@H](n2nc(-c3ccc(Oc4cccc(OC)c4Cl)cc3)c3cnccc32)C1` [Compound 2, (R)-1-(3-(3-(4-(2-chloro-3-methoxyphenoxy)phenyl)-1H-pyrazolo[4,3-c]pyridin-1-yl)piperidin-1-yl)prop-2-en-1-one]: the IC50 at BTK [1] is less than 10 nM. Moreover, the “concentration sufficient” value on BTK [2] was found to be 100 nM. For the same compound, the “Btk occupancy in vivo” value on Btk [3] (10 mg/kg single oral dose) was “full occupancy”.

As for `C=CC(=O)N1CCC[C@@H](n2nc(-c3ccc(Oc4cccc(OC)c4F)cc3)c3cnccc32)C1` [Compound 71, (R)-1-(3-(3-(4-(2-fluoro-3-methoxyphenoxy)phenyl)-1H-pyrazolo[4,3-c]pyridin-1-yl)piperidin-1-yl)prop-2-en-1-one], on BTK [1], the IC50 is less than 10 nM. Besides, the “concentration sufficient” value on BTK [2] is given as 100 nM. At Btk [3] (10 mg/kg single oral dose), the “Btk occupancy in vivo” value was “full occupancy”.

In the case of `C=CC(=O)N1CCCC1Cn1nc(-c2ccc(Oc3cccc(OC)c3F)cc2)c2cncc(OC)c21` (centres unmarked) [Compound 91, 1-(2-((3-(4-(2-fluoro-3-methoxyphenoxy)phenyl)-7-methoxy-1H-pyrazolo[4,3-c]pyridin-1-yl)methyl)pyrrolidin-1-yl)prop-2-en-1-one], the IC50 on BTK [1] was less than 10 nM. The “Btk occupancy in vivo” value at Btk [3] (5 mg/kg single oral dose) is reported as “full occupancy”.

As for `C=CC(=O)N1CC[C@@H](n2nc(-c3ccc(Oc4cccc(F)c4Cl)cc3)c3cnccc32)C1` [Compound 4, (R)-1-(3-(3-(4-(2-chloro-3-fluorophenoxy)phenyl)-1H-pyrazolo[4,3-c]pyridin-1-yl)pyrrolidin-1-yl)prop-2-en-1-one], the IC50 at BTK [1] was less than 10 nM. Further, at BTK [2], the “concentration sufficient” value is listed as 100 nM. In addition, the “Btk occupancy in vivo” value at Btk [3] (10 mg/kg single oral dose) was “full occupancy”.

As to `C=CC(=O)N1CC[C@@H](n2nc(-c3ccc(Oc4cccc(OC)c4F)cc3)c3cncc(OCC)c32)C1` [Compound 80, (R)-1-(3-(7-cthoxy-3-(4-(2-fluoro-3-methoxyphenoxy)phenyl)-1H-pyrazolo[4,3-c]pyridin-1-yl)pyrrolidin-1-yl)prop-2-en-1-one], the IC50 at BTK [1] is less than 10 nM. Besides, the “concentration sufficient” value at BTK [2] is 50 nM.

As for `C=CC(=O)N1CC[C@@H](n2nc(-c3ccc(Oc4cccc(F)c4)cc3)c3cnccc32)C1` [Compound 63, (R)-1-(3-(3-(4-(3-fluorophenoxy)phenyl)-1H-pyrazolo[4,3-c]pyridin-1-yl)pyrrolidin-1-yl)prop-2-en-1-one], the IC50 was less than 10 nM on BTK [1] and 100 to 1000 nM in the assay with Ramos cells.

As for `C=CC(=O)N1CC[C@@H](n2nc(-c3ccc(Oc4cccc(Cl)c4F)cc3)c3cnccc32)C1` [Compound 19, (R)-1-(3-(3-(4-(3-chloro-2-fluorophenoxy)phenyl)-1H-pyrazolo[4,3-c]pyridin-1-yl)pyrrolidin-1-yl)prop-2-en-1-one], the IC50 was less than 10 nM on BTK [1] and 10 to 100 nM in the assay on Ramos cells.

As for `C=CC(=O)N1CCC[C@@H](n2nc(-c3ccc(Oc4cccc(OC)c4F)cc3)c3cncc(OC4CCOC4)c32)C1` (stereo partly drawn) [Compound 99, 1-((3R)-3-(3-(4-(2-fluoro-3-methoxyphenoxy)phenyl)-7-((tctrahydrofuran-3-yl)oxy)-1H-pyrazolo[4,3-c]pyridin-1-yl)piperidin-1-yl)prop-2-en-1-one], the IC50 on BTK [1] is less than 10 nM. In addition, the “concentration sufficient” value on BTK [2] is given as 100 nM.

In the case of `C=CC(=O)N1CC[C@@H](n2nc(-c3ccc(Oc4cccc(OC)c4F)cc3)c3cncc(OC)c32)C1` [Compound 79, (R)-1-(3-(3-(4-(2-fluoro-3-methoxyphenoxy)phenyl)-7-methoxy-1H-pyrazolo[4,3-c]pyridin-1-yl)pyrrolidin-1-yl)prop-2-en-1-one], at BTK [1], the IC50 is less than 10 nM. In addition, the “concentration sufficient” value at BTK [2] came to 50 nM.

For the compound `C=CC(=O)N1CC[C@@H](n2nc(-c3ccc(Oc4cccc(F)c4F)cc3)c3cnccc32)C1` [Compound 18, (R)-1-(3-(3-(4-(2,3-difluorophenoxy)phenyl)-1H-pyrazolo[4,3-c]pyridin-1-yl)pyrrolidin-1-yl)prop-2-en-1-one], the IC50 on BTK [1] was less than 10 nM; in the assay on Ramos cells it was 10 to 100 nM.

Turning to `C=CC(=O)N1CC[C@@H](n2nc(-c3ccc(Sc4cccc(F)c4)cc3)c3cnccc32)C1` [Compound 58, (R)-1-(3-(3-(4-((3-fluorophenyl)thio)phenyl)-1H-pyrazolo[4,3-c]pyridin-1-yl)pyrrolidin-1-yl)prop-2-en-1-one], the IC50 was less than 10 nM at BTK [1] and 10 to 100 nM in the assay with Ramos cells.

Turning to `C=CC(=O)N1CC[C@@H](n2nc(-c3ccc(Oc4ccccc4)c(F)c3)c3cnccc32)C1` [Compound 61, (R)-1-(3-(3-(3-fluoro-4-phenoxyphenyl)-1H-pyrazolo[4,3-c]pyridin-1-yl)pyrrolidin-1-yl)prop-2-en-1-one], the IC50 is less than 10 nM at BTK [1] and 100 to 1000 nM in the assay with Ramos cells.

Regarding `C=CC(=O)N1CC[C@@H](n2nc3ccncc3c2-c2ccc(Oc3cccc(Cl)c3Cl)cc2)C1` [Compound 41, (R)-1-(3-(3-(4-(2,3-dichlorophenoxy)phenyl)-2H-pyrazolo[4,3-c]pyridin-2-yl)pyrrolidin-1-yl)prop-2-en-1-one], the IC50 on BTK [1] is less than 10 nM; in the assay on Ramos cells it was 10 to 100 nM. Also, at BTK [2], the “concentration sufficient” value is 100 nM.

On to `C=CC(=O)N1CCC[C@@H](n2nc(-c3ccc(Oc4cccc(Cl)c4F)cc3)c3cnccc32)C1` [Compound 20, (R)-1-(3-(3-(4-(3-chloro-2-fluorophenoxy)phenyl)-1H-pyrazolo[4,3-c]pyridin-1-yl)piperidin-1-yl)prop-2-en-1-one], for which the IC50 at BTK [1] was less than 10 nM; with Ramos cells, 10 to 100 nM.

As to `C=CC(=O)N1CCC[C@@H](n2nc(-c3ccc(Oc4cccc(F)c4F)cc3)c3cnccc32)C1` [Compound 17, (R)-1-(3-(3-(4-(2,3-difluorophenoxy)phenyl)-1H-pyrazolo[4,3-c]pyridin-1-yl)piperidin-1-yl)prop-2-en-1-one], the IC50 at BTK [1] was less than 10 nM; in the assay with Ramos cells, 10 to 100 nM. Besides, at BTK [2], the “concentration sufficient” value was determined as 100 nM.

With `C=CC(=O)N1CCC[C@@H](n2nc3ccncc3c2-c2ccc(Oc3cccc(Cl)c3Cl)cc2)C1` [Compound 43, (R)-1-(3-(3-(4-(2,3-dichlorophenoxy)phenyl)-2H-pyrazolo[4,3-c]pyridin-2-yl)piperidin-1-yl)prop-2-en-1-one], the IC50 is less than 10 nM at BTK [1] and 10 to 100 nM in the assay with Ramos cells. Moreover, the “concentration sufficient” value at BTK [2] turned out to be 100 nM.

Values taken from patent US10662187B2, “Bruton's tyrosine kinase inhibitors” (Zibo Biopolar Changsheng Pharmaceutical Co. Ltd., priority 2016, dated 2020).
